Patent publication US20230391786A1, “cGAS INHIBITORS” (Eli Lilly and Company, priority 2022, published 2023)
Read-outs that look alike come from different tables or passages of the source.

Assays:
recombinant human cGAS = recombinant human cGAS (Homo sapiens (Human), UniProt Q8N884); assay: In vitro inhibition assay of cGAS activity (cGAMP production, RapidFire mass spectrometry); type: biochemical; conditions: 10 nM recombinant human cGAS, 60 nM 75-bp dsDNA, ATP, GTP, room temperature 3 hours
How it was run: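 Full-length His6-tagged human cGAS (10 nM, E. coli-expressed) was incubated 3 h at room temperature with 60 nM 75-bp dsDNA, ATP, 50 μM GTP and compound at pH 7.5 with 5 mM MgCl2. cGAMP formation was measured by RapidFire mass spectrometry, and IC50 was taken from a 4-parameter logistic fit.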

[1] = test system: cGAS activity in THP1 cells (IFNb as marker); assay: Cellular assay to measure cGAS activity (IFNb production in PMA-differentiated THP1 cells stimulated by RDG-Adenovirus-GFP); type: cell-based, human; conditions: Homo sapiens, THP-1, THP1 cells, PMA differentiated, RDG-Adenovirus-GFP 1000 MOI, IFNb AlphaLISA, overnight incubation; read-out: IC50 (μM), Cellular assay for Compounds 95-348
Procedure: Cellular assay to measure cGAS activity: Use THP1 cell line from ATCC to determine inhibition of cGAS activity by test compounds in human cells. Plate cells on 96-well plates at 0.2×10^6/well and differentiate with phorbol myristate acetate (PMA) at 37° C./5% CO2. After 24 hours, replace PMA containing media with media lacking PMA and further incubate overnight. Stimulate cells were then by RDG-Adenovirus-GFP (Vector Biolabs #1768) at 1000 MOI for 4 hours prior to the addition of test compounds. After overnight incubation, transfer 10 μL of the media from each well to a new plate for IFNb analysis as a marker for cGAS activity. Measure quantification of IFNb with an IFNb AlphaLISA Detection kit (Perkin Elmer AL3133F) by mixing the acceptor beads with the cell supernatant followed by the addition of the biotinylated antibody and donor beads. Measure the relative fluorescence signal produced from the interaction of the donor and acceptor beads by a PHERAStar AlphaLISA protocol and evaluate the inhibitory effect of a compound by plotting specific inhibition of IFNb production against log concentration of the test compound. Calculate IC50 values using a 4-parameter non-linear logistic equation (y=(S0+((SInf−S0)/(1+((qAC50/x)^nHill))))).

[2] = read-out: IC50 (μM), In vitro inhibition assay for Compounds 95-348
[3] = read-out: IC50 (μM), In vitro inhibition assay for Compounds 1-94

recombinant human cGAS, sequence (Q8N884 whole entry): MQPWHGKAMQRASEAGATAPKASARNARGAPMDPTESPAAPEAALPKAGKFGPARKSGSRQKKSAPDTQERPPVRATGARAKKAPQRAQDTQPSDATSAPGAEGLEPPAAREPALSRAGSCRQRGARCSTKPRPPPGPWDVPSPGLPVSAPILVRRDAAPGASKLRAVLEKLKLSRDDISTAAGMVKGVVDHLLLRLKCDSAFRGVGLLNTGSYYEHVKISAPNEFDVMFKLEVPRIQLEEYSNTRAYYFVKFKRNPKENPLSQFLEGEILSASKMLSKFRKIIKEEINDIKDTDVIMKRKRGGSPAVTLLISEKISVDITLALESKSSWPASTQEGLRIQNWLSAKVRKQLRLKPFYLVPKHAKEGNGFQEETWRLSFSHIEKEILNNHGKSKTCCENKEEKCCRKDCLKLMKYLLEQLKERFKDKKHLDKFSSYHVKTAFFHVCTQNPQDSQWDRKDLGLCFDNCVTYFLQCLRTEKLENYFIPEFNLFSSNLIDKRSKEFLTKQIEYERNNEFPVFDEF

**Q.** With `FCCOc1cc(Cl)c(Cl)c2[nH]cc(-c3cn[nH]c3)c12` [Example 183, 6,7-Dichloro-4-(2-fluoroethoxy)-3-(1H-pyrazol-4-yl)-1H-indole] as the compound, how does the IC50 (recombinant human cGAS; [2]) read?
**A.** 0.0118 µM

**Q.** And the IC50 [1]?
**A.** 0.875 µM

**Q.** `O[C@H]1C[C@@H](Oc2cc(Cl)c(Cl)c3[nH]cc(-c4cn[nH]c4)c23)C1` [Example 207, Cis-3-[[6,7-Dichloro-3-(1H-pyrazol-4-yl)-1H-indol-4-yl]oxy]cyclobutanol] was tested. Which IC50 (recombinant human cGAS; [2]) did it give?
**A.** 0.042 µM

**Q.** What about the IC50 [1] of the same compound?
**A.** 1.63 µM

**Q.** `O=C(CO)NC1Cc2c(-c3cn[nH]c3)c3ccc(Cl)c(Cl)c3n2C1` (centres unmarked) [Example 154, N-(5,6-Dichloro-9-(1H-pyrazol-4-yl)-2,3-dihydro-1H-pyrrolo[1,2-a]indol-2-yl)-2-hydroxyacetamide] was tested. Which IC50 (recombinant human cGAS; [2]) did it give?
**A.** 0.026 µM

**Q.** And the IC50 [1]?
**A.** 2.41 µM

**Q.** With `FC(F)CNc1cc(Cl)c(Cl)c2[nH]cc(-c3cn[nH]c3)c12` [Example 122, 6,7-Dichloro-N-(2,2-difluoroethyl)-3-(1H-pyrazol-4-yl)-1H-indol-4-amine] as the compound, how does the IC50 (recombinant human cGAS; [2]) read?
**A.** 0.0137 µM

**Q.** What about the IC50 [1] of the same compound?
**A.** 0.88 µM

**Q.** Which results are given for `FCCNc1cc(Cl)c(Cl)c2[nH]cc(-c3cn[nH]c3)c12` [Example 123, 6,7-Dichloro-N-(2-fluoroethyl)-3-(1H-pyrazol-4-yl)-1H-indol-4-amine]?
**A.** IC50 (recombinant human cGAS; [2]): 0.00491 µM; IC50 [1]: 0.547 µM

**Q.** Which results are given for `O=C(O)Cn1cc(-n2cc(-c3cn[nH]c3)c3ccc(Cl)c(Cl)c32)nn1` [Example 212, 2-[4-[6,7-Dichloro-3-(1H-pyrazol-4-yl)indol-1-yl]triazol-1-yl]acetic acid]?
**A.** IC50 (recombinant human cGAS; [2]): 0.0125 µM; IC50 [1]: > 10 µM

**Q.** How did the IC50 [1] turn out when `Cn1ncnc1COCC(=O)N1CCn2c(c(-c3cn[nH]c3)c3c(OCC#N)cc(Cl)c(Cl)c32)C1` [Example 181] was run?
**A.** > 10 µM

**Q.** For `NC1CCn2c1c(-c1cn[nH]c1)c1ccc(Cl)c(Cl)c12` (centres unmarked) [Example 241, 5,6-Dichloro-9-(1H-pyrazol-4-yl)-2,3-dihydro-1H-pyrrolo[1,2-a]indol-1-amine], which IC50 [1] is on record?
**A.** > 10 µM

**Q.** `CN1CCOC(C(=O)N2CCn3c(c(-c4cn[nH]c4)c4ccc(Cl)c(Cl)c43)C2)C1` (centres unmarked) [Example 50, [6,7-dichloro-10-(1H-pyrazol-4-yl)-3,4-dihydro-1H-pyrazino[1,2-a]indol-2-yl]-(4-methylmorpholin-2-yl)methanone] was tested. Which IC50 (recombinant human cGAS; [3]) did it give?
**A.** 0.04 µM

**Q.** `COCC(=O)NC(C)C(=O)N1CCn2c(c(-c3cn[nH]c3)c3ccc(Cl)c(Cl)c32)C1` (centres unmarked) [Example 333, N-(1-(6,7-Dichloro-10-(1H-pyrazol-4-yl)-3,4-dihydropyrazino[1,2-a]indol-2(1H)-yl)-1-oxopropan-2-yl)-2-methoxyacetamide] was tested. Which IC50 (recombinant human cGAS; [2]) did it give?
**A.** 0.0918 µM

**Q.** Which IC50 (recombinant human cGAS; [3]) does the source give for `CNC(=O)N1CCn2c(c(-c3cn[nH]c3)c3ccc(Cl)c(Cl)c32)C1` [Example 39, 6,7-dichloro-N-methyl-10-(1H-pyrazol-4-yl)-3,4-dihydro-1H-pyrazino[1,2-a]indole-2-carboxamide] here?
**A.** 0.0392 µM

**Q.** Which IC50 (recombinant human cGAS; [2]) does the source give for `CN1CC(=O)N(CC(=O)N2CCn3c(c(-c4cn[nH]c4)c4ccc(Cl)c(Cl)c43)C2)C1=O` [Example 311, 3-(2-(6,7-Dichloro-10-(1H-pyrazol-4-yl)-3,4-dihydropyrazino[1,2-a]indol-2(1H)-yl)-2-oxoethyl)-1-methylimidazolidine-2,4-dione] here?
**A.** 0.043 µM

**Q.** How did the IC50 (recombinant human cGAS; [3]) turn out when `Clc1c(Br)ccc2c(-c3cn[nH]c3)c[nH]c12` [Example 30, 6-bromo-7-chloro-3-(1H-pyrazol-4-yl)-1H-indole] was run?
**A.** 0.034 µM

**Q.** How did the IC50 (recombinant human cGAS; [3]) turn out when `CC(=O)NC1CCn2c1c(-c1cn[nH]c1)c1ccc(Cl)c(Cl)c12` (single isomer, unassigned) [Example 26, N-(5,6-Dichloro-9-(1H-pyrazol-4-yl)-2,3-dihydro-1H-pyrrolo[1,2-a]indol-1-yl)acetamide] was run?
**A.** 0.0229 µM

**Q.** Which IC50 (recombinant human cGAS; [2]) does the source give for `O=C1Cn2c(c(-c3cn[nH]c3)c3ccc(Cl)c(Cl)c32)CC(CO)N1` (centres unmarked) [Example 101, 7,8-Dichloro-2-(hydroxymethyl)-11-(1H-pyrazol-4-yl)-2,3-dihydro-1H-[1,4]diazepino[1,7-a]indol-4(5H)-one] here?
**A.** 0.0705 µM

**Q.** How did the IC50 (recombinant human cGAS; [2]) turn out when `CN1CCN(CC(=O)N2CCn3c(c(-c4cn[nH]c4)c4ccc(Cl)c(Cl)c43)C2)C1=O` [Example 313, 1-(2-(6,7-Dichloro-10-(1H-pyrazol-4-yl)-3,4-dihydropyrazino[1,2-a]indol-2(1H)-yl)-2-oxoethyl)-3-methylimidazolidin-2-one] was run?
**A.** 0.0489 µM

**Q.** How did the IC50 (recombinant human cGAS; [3]) turn out when `NS(=O)(=O)N1CCn2c(c(-c3cn[nH]c3)c3ccc(Cl)c(Cl)c32)C1` [Example 40, 6,7-dichloro-10-(1H-pyrazol-4-yl)-3,4-dihydro-1H-pyrazino[1,2-a]indole-2-sulfonamide] was run?
**A.** 0.0525 µM

**Q.** `Clc1ccc2c(-n3ccnc3)c[nH]c2c1Cl` [Example 29, 6,7-Dichloro-3-imidazol-1-yl-1H-indole] was tested. Which IC50 (recombinant human cGAS; [3]) did it give?
**A.** 0.0447 µM

**Q.** How did the IC50 (recombinant human cGAS; [3]) turn out when `O=C(Cn1cncn1)N1CCn2c(c(-c3cn[nH]c3)c3ccc(Cl)c(Cl)c32)C1` [Example 43, 1-[6,7-dichloro-10-(1H-pyrazol-4-yl)-3,4-dihydro-1H-pyrazino[1,2-a]indol-2-yl]-2-(1,2,4-triazol-1-yl)ethanone] was run?
**A.** 0.0912 µM

**Q.** How did the IC50 (recombinant human cGAS; [3]) turn out when `CC(=O)NC1CCc2c(-c3cn[nH]c3)c3ccc(Cl)c(Cl)c3n2C1` (single isomer, unassigned) [Example 21, N-[3,4-Dichloro-10-(1H-pyrazol-4-yl)-6,7,8,9-tetrahydropyrido[1,2-a]indol-7-yl]acetamide] was run?
**A.** 0.0243 µM

**Q.** With `Clc1ccc2c(-c3cn[nH]c3)cn(-c3cn[nH]n3)c2c1Cl` [Example 34, 6,7-Dichloro-3-(1H-pyrazol-4-yl)-1-(2H-triazol-4-yl)indole] as the compound, how does the IC50 (recombinant human cGAS; [3]) read?
**A.** 0.0691 µM

**Q.** Which IC50 (recombinant human cGAS; [3]) does the source give for `O=C(O)C1CCn2c(c(-c3cn[nH]c3)c3ccc(Cl)c(Cl)c32)C1` (single isomer, unassigned) [Example 14, 3,4-Dichloro-10-(1H-pyrazol-4-yl)-6,7,8,9-tetrahydropyrido[1,2-a]indole-8-carboxylic acid] here?
**A.** 0.0309 µM

**Q.** How did the IC50 (recombinant human cGAS; [3]) turn out when `CC(C#N)Oc1cc(Cl)c(Cl)c2[nH]cc(-c3cn[nH]c3)c12` (centres unmarked) [Example 60, 2-[[6,7-Dichloro-3-(1H-pyrazol-4-yl)-1H-indol-4-yl]oxy]propanenitrile] was run?
**A.** 0.0855 µM

**Q.** With `CN1C(=O)CN(CC(=O)N2CCn3c(c(-c4cn[nH]c4)c4ccc(Cl)c(Cl)c43)C2)C1=O` [Example 327, 1-(2-(6,7-Dichloro-10-(1H-pyrazol-4-yl)-3,4-dihydropyrazino[1,2-a]indol-2(1H)-yl)-2-oxoethyl)-3-methylimidazolidine-2,4-dione] as the compound, how does the IC50 (recombinant human cGAS; [2]) read?
**A.** 0.0635 µM

**Q.** How did the IC50 (recombinant human cGAS; [2]) turn out when `O=C1NC(C(=O)N2CCn3c(c(-c4cn[nH]c4)c4ccc(Cl)c(Cl)c43)C2)CCO1` (centres unmarked) [Example 314, 4-(6,7-Dichloro-10-(1H-pyrazol-4-yl)-1,2,3,4-tetrahydropyrazino[1,2-a]indole-2-carbonyl)-1,3-oxazinan-2-one] was run?
**A.** 0.0491 µM

**Q.** How did the IC50 (recombinant human cGAS; [3]) turn out when `CC(=O)NC1CCc2c(-c3cn[nH]c3)c3ccc(Cl)c(Cl)c3n2C1` (single isomer, unassigned) [Example 20, N-[3,4-Dichloro-10-(1H-pyrazol-4-yl)-6,7,8,9-tetrahydropyrido[1,2-a]indol-7-yl]acetamide] was run?
**A.** 0.155 µM

**Q.** For `O=C(O)C1CCCc2c(-c3cn[nH]c3)c3ccc(Cl)c(Cl)c3n2C1` (centres unmarked) [Example 77, 3,4-Dichloro-11-(1H-pyrazol-4-yl)-7,8,9,10-tetrahydro-6H-azepino[1,2-a]indole-7-carboxylic acid], which IC50 (recombinant human cGAS; [3]) is on record?
**A.** 0.0157 µM

**Q.** `OCCn1cc(-n2cc(-c3cn[nH]c3)c3ccc(Cl)cc32)nn1` [Example 229] was tested. Which IC50 [1] did it give?
**A.** 2.1 µM

**Q.** Which IC50 (recombinant human cGAS; [3]) does the source give for `O=C(CN1CCOCC1)N1CCn2c(c(-c3cn[nH]c3)c3ccc(Cl)c(Cl)c32)C1` [Example 45, 1-[6,7-dichloro-10-(1H-pyrazol-4-yl)-3,4-dihydro-1H-pyrazino [1,2-a]indole-2-yl]-2-morpholino-ethanone] here?
**A.** 0.0834 µM
